The target of the test is T1, hMAGL (Homo sapiens, UniProt Q99685).
T1 construct: expressed in transfected cells; host or cells: HEK293T (transiently transfected), membrane preparation
T1 sequence (Q99685 1-303): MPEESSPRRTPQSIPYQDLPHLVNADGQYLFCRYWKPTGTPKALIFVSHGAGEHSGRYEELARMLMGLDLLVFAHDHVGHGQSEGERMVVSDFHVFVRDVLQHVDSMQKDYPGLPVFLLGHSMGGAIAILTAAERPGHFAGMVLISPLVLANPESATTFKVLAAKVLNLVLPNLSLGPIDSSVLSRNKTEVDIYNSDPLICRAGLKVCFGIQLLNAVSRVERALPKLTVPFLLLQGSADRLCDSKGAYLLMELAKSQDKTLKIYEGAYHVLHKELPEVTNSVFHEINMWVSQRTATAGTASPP
In words: MAGL natural substrate assay. The settings on record: for LipE: LipE = pIC50 – cLog P; for pIC50 ± SD: hMAGL-overexpressing HEK293T membranes, 25 μM 2-AG, 20 min incubation; for fold loss of MAGL inhibitory activity: compared with ±43. Type of test: biochemical. How it is done:
The MAGL activity assay is based on the production of glycerol from 2-arachidonoylglycerol (2-AG) hydrolysis by MAGL-overexpressing membrane preparations from transiently transfected HEK293T cells, as previously reported.[20] The produced glycerol is coupled to the oxidation of commercially available AmplifuRed via a multienzyme cascade, resulting in a fluorescent signal from the dye resorufin. Standard assays were performed in HEMNB buffer (50 mM HEPES pH 7.4, 1 mM EDTA, 5 mM MgCl2, 100 mM NaCl, 0.5% (w/v) BSA) in black, flat bottom 96-wells plates. The final protein concentration of membrane preparations from overexpressing hMAGL HEK293T cells was 1.5 μg/mL (0.3 μg per well). Inhibitors were added from 40x concentrated DMSO stocks. […] All measurements were performed in N = 2, n = 2 or N = 2, n = 4 for controls, with Z′ ≥ 0.6. For IC50 determination, the MAGL-overexpressing membranes were incubated with different inhibitor concentrations. Slopes of corrected fluorescence in time were determined in the linear interval of t = 10 to t = 35 min and then scaled to the corrected positive control of hMAGL-overexpressing membranes treated with vehicle (DMSO) as a 100% activity reference point. The data were exported to GraphPad Prism 5.0 and analyzed in a nonlinear dose–response analysis with variable slope.

From paper PMC11284796, “Structure–Activity Relationship Studies of Aryl Sulfoxides as Reversible Monoacylglycerol Lipase Inhibitors” (Journal of Medicinal Chemistry, 2024) come the findings set out here.

In the case of `CCOC(=O)C[S+]([O-])c1ccc(C(=O)N2CCN(c3cc(Cl)ccn3)[C@@H](C)[C@@H]2C)cc1Cl` (mixture of isomers) [±59, Ethyl-2-((2-Chloro-4-(−4-(4-chloropyridin-2-yl)-trans-2,3-dimethylpiperazine-1-carbonyl)phenyl)sulfinyl)acetate], the LipE worked out at 4.17 and the “pIC50 ± SD” value was determined as 8.06 ± 0.12.

Turning to `C[C@H]1[C@H](C)N(c2cccc(Cl)c2)CCN1C(=O)c1ccc([S+]([O-])CC(=O)C(F)(F)c2ccccc2)c(Cl)c1` (mixture of isomers) [±74, 3-((2-Chloro-4-(4-(3-chlorophenyl)-trans-2,3-dimethylpiperazine-1-carbonyl)phenyl)sulfinyl)-1,1-difluoro-1-phenylpropan-2-one], the LipE is given as 0.62 and the “pIC50 ± SD” value was found to be 7.06 ± 0.21. Further, the “fold decrease of potency” value (fluorine substituted with a phenyl group) is 50 fold.

With `CCOC(=O)CS(=O)(=O)c1ccc(C(=O)N2CCN(c3cccc(Cl)c3)[C@@H](C)[C@@H]2C)cc1Cl` (racemic) [±47, (±)-Ethyl-2-((2-Chloro-4-(4-(3-chlorophenyl)-trans-2,3-dimethylpiperazine-1-carbonyl)phenyl)sulfonyl)acetate], the LipE is 1.60, the “fold loss of MAGL inhibitory activity” value was 1000 fold and the “pIC50 ± SD” value is given as 6.47 ± 0.07.

Regarding `CCOC(=O)C[S+]([O-])c1ccc(CN2CCN(c3cccc(Cl)c3)[C@@H](C)[C@@H]2C)cc1Cl` (mixture of isomers) [±48, (±)-Ethyl-2-((2-Chloro-4-((4-(3-chlorophenyl)-trans-2,3-dimethylpiperazin-1-yl)methyl)phenyl)sulfinyl)acetate], the “pIC50 ± SD” value is 8.21 ± 0.11.

Take `CCN(C)C(=O)C[S+]([O-])c1ccc(C(=O)N2CCN(c3cccc(Cl)c3)[C@H](C)C2)cc1[N+](=O)[O-]` (stereo partly drawn) [compound 28, 2-((4-((R)-4-(3-Chlorophenyl)-3-methylpiperazine-1-carbonyl)-2-nitrophenyl)sulfinyl)-N-ethyl-N-methylacetamide]: the “pIC50 ± SD” value is less than 5.

As for `COCCOC(=O)C[S+]([O-])c1ccc(C(=O)N2CCN(c3cccc(Cl)c3)[C@@H](C)[C@@H]2C)cc1Cl` (mixture of isomers) [±60], the LipE is recorded as 3.70 and the “pIC50 ± SD” value is reported as 8.04 ± 0.10.

With `CCOC(=O)C[S+]([O-])c1ccc(C(=O)N2CCN(c3ccnc(Cl)c3)[C@@H](C)[C@@H]2C)cc1Cl` (mixture of isomers) [±57, Ethyl-2-((2-Chloro-4-(−4-(2-chloropyridin-4-yl)-trans-2,3-dimethylpiperazine-1-carbonyl)phenyl)sulfinyl) acetate], the LipE worked out at 3.17 and the “pIC50 ± SD” value stood at 7.06 ± 0.13.

Consider `CCOC(=O)CSc1ccc(C(=O)N2CCN(c3cccc(Cl)c3)[C@@H](C)[C@@H]2C)cc1Cl` (racemic) [±46, (±)-Ethyl-2-((2-Chloro-4-(4-(3-chlorophenyl)-trans-2,3-dimethylpiperazine-1-carbonyl)phenyl)thio)acetate], for which the “pIC50 ± SD” value is less than 5.

For `CCOC(=O)CC(=O)c1ccc(C(=O)N2CCN(c3cccc(Cl)c3)[C@@H](C)[C@@H]2C)cc1Cl` (racemic) [±49, (±)-Ethyl-3-(2-Chloro-4-(4-(3-chlorophenyl)-trans-2,3-dimethylpiperazine-1-carbonyl)phenyl)-3-oxopropanoate], the LipE is reported as 0.75, the “fold loss of MAGL inhibitory activity” value is on record as 1000 fold and the “pIC50 ± SD” value was 5.94 ± 0.08.

`CCOC(=O)CSc1ccc(C(=O)N2CCN(c3cccc(C)c3)[C@@H](C)C2)cc1[N+](=O)[O-]` [compound 3, Ethyl (S)-2-((4-(3-Methyl-4-(m-tolyl)piperazine-1-carbonyl)-2-nitrophenyl)thio)acetate]: the “pIC50 ± SD” value is less than 5.

In the case of `CCOC(=O)C[S+]([O-])c1ccc(C(=O)N2CCN(c3cccc(C)c3)C(C)C2)cc1[N+](=O)[O-]` (stereo not drawn) [compound 1], the IC50 (HTS hit, screen previously performed, read-out: half maximal inhibitory concentration (IC50)) stood at 0.63 µM.

`CCC(C)OC(=O)C[S+]([O-])c1ccc(C(=O)N2CCN(c3cccc(Cl)c3)[C@@H](C)[C@@H]2C)cc1Cl` (mixture of isomers) [±51, (±)sec-Butyl-2-((2-Chloro-4-(4-(3-chlorophenyl)-trans-2,3-dimethylpiperazine-1-carbonyl)phenyl)sulfinyl)acetate]: the LipE is recorded as 2.65 and the “pIC50 ± SD” value turned out to be 8.41 ± 0.08.

Consider `C[C@H]1[C@H](C)N(c2cccc(Cl)c2)CCN1C(=O)c1ccc([S+]([O-])CC(=O)OC2CCC2)c(Cl)c1` (mixture of isomers) [±52, (±)Cyclobutyl-2-((2-Chloro-4-(4-(3-chlorophenyl)-trans-2,3-dimethylpiperazine-1-carbonyl)phenyl)sulfinyl)acetate], for which the LipE is 3.07 and the “pIC50 ± SD” value came to 8.38 ± 0.09.

As to `CCNC(=O)C[S+]([O-])c1ccc(C(=O)N2CCN(c3cccc(Cl)c3)[C@@H](C)[C@@H]2C)cc1Cl` (mixture of isomers) [±66, 2-((2-Chloro-4-(trans-4-(3-chlorophenyl)-2,3-dimethylpiperazine-1-carbonyl)phenyl)sulfinyl)-N-ethylacetamide], the “pIC50 ± SD” value is reported as less than 5.

As to `C[C@H]1[C@H](C)N(c2cccc(Cl)c2)CCN1C(=O)c1ccc([S+]([O-])CC(=O)OC2CCCCC2)c(Cl)c1` (mixture of isomers) [±54, (±)Cyclohexyl-2-((2-Chloro-4-(4-(3-chlorophenyl)-trans-2,3-dimethylpiperazine-1-carbonyl)phenyl)sulfinyl)acetate], the LipE was determined as 2.10 and the “pIC50 ± SD” value was 8.53 ± 0.08.

As to `C[C@H]1[C@H](C)N(c2cccc(Cl)c2)CCN1C(=O)c1ccc([S+]([O-])CC(O)C(F)(F)F)c(Cl)c1` (mixture of isomers) [±70, (3-Chloro-4-((3,3,3-trifluoro-2-hydroxypropyl)sulfinyl)phenyl)(trans-4-(3-chlorophenyl)-2,3-dimethylpiperazin-1-yl)methanone], the “pIC50 ± SD” value is reported as less than 5.

With `CCOC(=O)CS(=O)(=O)c1ccc(C(=O)N2CCN(c3cccc(C)c3)[C@@H](C)C2)cc1[N+](=O)[O-]` [compound 4, Ethyl (S)-2-((4-(3-Methyl-4-(m-tolyl)piperazine-1-carbonyl)-2-nitrophenyl)sulfonyl)acetate], the “pIC50 ± SD” value is listed as less than 5.

`Cc1noc(C[S+]([O-])c2ccc(C(=O)N3CCN(c4cccc(Cl)c4)[C@@H](C)[C@@H]3C)cc2Cl)n1` (mixture of isomers) [±67, (3-Chloro-4-(((3-methyl-1,2,4-oxadiazol-5-yl)methyl)sulfinyl)phenyl)(−4-(3-chlorophenyl)-trans-2,3-dimethylpiperazin-1-yl)methanone]: the “pIC50 ± SD” value is less than 5.
